# What was measured:
# Format in all cases: cell-based
# [1] = test system: P. aeruginosa strain PAO1; assay: Improved biofilm dispersion screen (already-formed biofilms, crystal violet); conditions: Pseudomonas aeruginosa, 30 mM NaOH step, positive = dispersion, negative = enhancement of pre-existing biofilm, quadruplicate, read-out: average percentage reduction of biofilm relative to the two control values (dispersion)
# Description: (§1) A modification of method disclosed in Reference Example 2, which greatly improves the sensitivity and reproducibility of the dispersion screen is hereby disclosed. […] In the modification described herein, compounds are added in the presence of the fresh liquid growth media, such that the resultant biofilms continue to grow, unless a test compound triggers their dispersion. Overnight cultures are made as above, and 100 μL of the appropriate liquid growth media are dispensed into duplicate 96 well microplates—in this fashion, two identical microplates are set up for each bacterial species to be assayed. Neither compounds nor DMSO are added prior to the inoculation of bacteria, and growth in the duplicate plates for 24 hours is allowed using the conditions specified in Reference Example 1. After growth of biofilm to be tested in the wells, cells present in biofilm attached to one of the duplicate microplates is stained with CV, quantitated as described in Reference Example 1, and the data for the entire plate averaged, resulting in a growth control value, t0. The remaining replicate of each microplate pairs is treated with compounds in DMSO, or DMSO alone for control wells, by first removing the cell suspensions from the wells, then adding fresh 100 μL volumes of the same appropriate liquid growth media, followed by direct addition and mixing of the compound DMSO solutions to give final compound concentrations of 390 μM. Incubation of the compound-containing microplates is then continued for an additional 22–26 hours using the same conditions described in Reference Example 1. Cell suspensions are then removed, 100 μL per well of a 0 mM NaOH (S. epidermidis), 20 mM NaOH (P. fluorescens), or 30 mM NaOH (P. aeruginosa) solution in PBS is added, and incubation at room temperature is allowed for 30 minutes. No addition of NaOH is made to the S. epidermidis suspension since a test assay indicated no amplification by base with S. epidermidis. The microplates are subsequently rinsed three times with 150 μL per well of PBS, followed by final liquid removal, staining with CV and quantitation as described in Reference Example 1. Data for each well that contained compound result in a compound value, R, and data for control wells that contained DMSO only are averaged to generate a second control value, t24. The effect of each compound tested on dispersion of the biofilm compared to the two control values is calculated thus: [formula] […] Data are expressed in terms of the average percentage reduction of biofilm formed in the presence of each compound, relative to the two control values, for quadruplicate samples. Assays are run as described above, using compound concentrations of 390 μM. Positive numbers indicate dispersion (reduction) of pre-existing biofilms by a compound, and negative numbers indicate enhancement (stimulation of growth) of pre-existing biofilms by a compound (percentage coefficients of variation are ≦15%).
# [2] = test system: P. fluorescens strain ATCC 13525; assay: as above; conditions: Pseudomonas fluorescens, ATCC13525, 20 mM NaOH step, positive = dispersion, negative = enhancement of pre-existing biofilm, quadruplicate, read-out: average percentage reduction of biofilm relative to the two control values (dispersion)
# Description: as §1
# [3] = test system: S. epidermidis strain ATCC 35984; assay: as above; conditions: Staphylococcus epidermidis, ATCC35984, no NaOH, positive = dispersion, negative = enhancement of pre-existing biofilm, quadruplicate, read-out: average percentage reduction of biofilm relative to the two control values (dispersion)
# Description: as §1
# [4] = test system: P. aeruginosa strain PAO1; assay: Biofilm prevention screen (96-well microplate, crystal violet); conditions: Pseudomonas aeruginosa, positive = prevention, negative = enhancement of biofilm formation, quadruplicate, read-out: average percentage reduction of biofilm formed relative to DMSO controls
# Description: (§2) Overnight cultures of 3 mL are made of P. aeruginosa strain PAO1 (grown in R2A medium (Handbook of Microbiological Media; CRC Press, 1997, second edition, R. M. Atlas, ed.), modified to omit Mg^2+ but to include 0.3–0.5% fructose (pH 7.0) and 3 μM ferrous ammonium sulfate), P. fluorescens strain ATCC 13525 (grown in R2A modified to omit Mg^2+ but to include 0.3–0.5% sodium pyruvate (pH 7.0)), S. epidermidis strain ATCC 35984 (grown in a ¼ dilution of TSB (Handbook of Microbiological Media; CRC Press, 1997, second edition, R. M. Atlas, ed.) supplemented with 1% fructose (pH 7.0) and 3 μM ferrous ammonium sulfate). To each type of growth medium, HEPES (pH 7.3) is optionally added to a final concentration of 10 mM.
# (§3) To PS, PVC, or PP (preferably PP or PVC) round-bottom, 96-well microplates containing 100 μl per well of the respective growth medium as described above, compounds to be tested (dissolved in DMSO) are added and mixed, to give a final concentration of 250–500 μM. These microplates then also are used to make successive dilutions of the compounds in the same respective growth medium to yield microplates containing final concentrations of, for example, 160 μM and 32 μM of the same set of compounds. Control wells are included in the dilution series that contain only DMSO. From the 3 ml overnight cultures, each of the three dilution plate sets is inoculated with 5 μl per well of a 1:1 dilution in the same liquid growth media of the appropriate culture. The covered plate is then incubated with shaking, at 30° C. (for P. aeruginosa or P. fluorescens) or 37° C. (for S. epidermidis), at 200 rpm, for 16–26 hours, in a humidity controlled environment.
# (§4) Cells present in biofilm attached to the microplate surface are stained with CV either after removal of the liquid from each well, followed by rinsing three times (aspiration and addition) with 150 μl per well phosphate buffered saline solution (PBS) and final addition of 100 μl per well of PBS, or by direct addition of stain to bacterial cultures without rinsing. To 100 μl per well of PBS or of bacterial culture, 25 μl/well of 1% CV solution (in ˜10% ethanol) is added. After incubation at room temperature for 45 minutes, the dye solution is removed from the plates. Residual dye is immediately removed by gentle rinsing with a stream of deionized water by filling and inverting the plates 4–5 times, or by using an automated pipettor. Rinsed plates are air-dried at room temperature for 0.5–2 hours. Bound dye is extracted by the addition of 150 μL per well of 95% ethanol, followed by vigorous mixing for 10–15 seconds and incubation for 45 minutes at room temperature without shaking. Subsequently, either undiluted or diluted (in ethanol) samples of extracted CV are transferred to flat bottom, polystyrene microtiter plates and absorbances at 586 nm were measured in a microplate reader. Readings from wells containing compounds are compared to the average of data from control wells that contain only DMSO. Replicate samples are measured, and results are reported as averages of the replicate well data points.
# (§5) Data are expressed in terms of the average percentage reduction of biofilm formed in the presence of each compound, relative to the DMSO controls, for quadruplicate samples. Assays are run using the three compound concentrations indicated. Positive numbers indicate prevention of biofilm formation by a compound, and negative numbers indicate enhancement of biofilm formation by a compound (percentage coefficients of variation are ≦10%).
# [5] = test system: P. fluorescens strain ATCC 13525; assay: as above; conditions: Pseudomonas fluorescens, positive = prevention, negative = enhancement of biofilm formation, quadruplicate, read-out: average percentage reduction of biofilm formed relative to DMSO controls; for inhibition at 32 µM: ATCC13525, 32 μM; for inhibition at 160 µM: ATCC13525, 160 μM; for inhibition at 390 µM: ATCC13525, 390 μM
# Description: as §2, §3, §4, §5
# [6] = test system: S. epidermidis strain ATCC 35984; assay: as above; conditions: Staphylococcus epidermidis, positive = prevention, negative = enhancement of biofilm formation, quadruplicate, read-out: average percentage reduction of biofilm formed relative to DMSO controls; for inhibition at 32 µM: ATCC35984, 32 μM; for inhibition at 160 µM: ATCC35984, 160 μM; for inhibition at 390 µM: ATCC35984, 390 μM
# Description: as §2, §3, §4, §5
SMILES,inhibition at 390 µM [1],inhibition at 390 µM [2],inhibition at 390 µM [3],inhibition at 32 µM [4],inhibition at 160 µM [4],inhibition at 390 µM [4],inhibition at 32 µM [5],inhibition at 160 µM [5],inhibition at 390 µM [5],inhibition at 32 µM [6],inhibition at 160 µM [6],inhibition at 390 µM [6]
"CCCCCCCCNC(=O)[C@H]1CCCCN1 [Compound 23, (R)-(+)-2-piperidinecarboxylic acid n-octyl amide]",0%,26%,0%,-5%,-31%,-3%,-23%,-13%,21%,-1%,15%,-36%
CCCCCCCCCCCCNC(=O)[C@@H]1CCCN1C(=O)OC(C)(C)C [Compound 160],-52%,-44%,0%,-2%,-44%,-59%,-1%,0%,-18%,-9%,20%,29%
CCCCCCNC(=O)[C@H]1CCCN1 [Compound 163],4%,12%,-5%,1%,22%,46%,5%,6%,22%,-3%,-5%,-10%
"CCCCCCCCNC(=O)[C@H]1CCCCN1C(=O)CCCCCCC [Compound 28, 1-Octanoyl-(R)-(+)-2-piperidinecarboxylic acid n-octyl amide]",-25%,10%,-8%,0%,-3%,-9%,21%,38%,26%,-5%,-44%,-51%
CCCCCCCCCCCCNC(=O)[C@H]1CCCN1 [Compound 167],4%,0%,78%,4%,49%,93%,38%,95%,92%,40%,100%,99%
CCCCCCCCNC(=O)[C@@H]1CCCCN1C(=O)OC(C)(C)C [Compound 19],-25%,0%,-3%,10%,-2%,-17%,6%,8%,10%,-11%,-33%,-11%
"CCCCCCCCNC(=O)[C@H]1CCCCN1C(=O)OC(C)(C)C [Compound 22, (R)-(+)-1-(tert-Butoxycarbonyl)-2-piperidinecarboxylic acid n-octyl amide]",-54%,0%,0%,0%,-8%,-6%,3%,27%,25%,-6%,-17%,3%
CCCCCCCCNC(=O)[C@@H]1CCN1 [Compound 288],-32%,-2%,72%,12%,97%,96%,-14%,40%,59%,101%,101%,99%
CCCCCCCCCCNC(=O)[C@H]1CCCN1C(=O)OC(C)(C)C [Compound 158],-53%,-79%,0%,1%,-34%,-40%,3%,-11%,-40%,-10%,52%,54%
